pIC50: −log10 of the molar value.
Test system: 994946-033-R-J1-PDC complex spheroid viability
Experiment: Anticancer human tumor 994946-033-R-J1-PDC patient-derived melanoma cell line growth inhibition [POLQ]
Details: for pIC50: curve of first compound; for viability, T/C: stronger effect = lower value
Procedure: Multicellular complex tumor spheroid response to Polymerase (POL) inhibitors (novobiocin, ART-558, RP6685) in combination with a variety of drugs and investigational agents in selected tumor cell lines
The POL inhibitors (novobiocin, ART-558, and RP6685) were evaluated both individually and in combination with standard of care and investigational anticancer small molecules within a complex spheroid model of solid tumors. . Complex spheroids include a stromal component modeled by human endothelial cells (HUVEC) and fibroblasts modeled by human mesenchymal stem cells (MSCs). The concentration ranges selected for each drug and investigational agent were based upon clinically achievable concentrations if the clinical Cmax of the agent was known.
Compounds. The drugs and investigational agents: novobiocin (NSC847541), ART-558 (NSC835418), RP-6685 (NSC848927), peposertib (NSC802822), ceralasertib (NSC780249), elimusertib (NSC800525), camonsertib (NSC841442), AZD-1390 (NSC803789), olaparib (NSC753686), talazoparib (NSC767125), rucaparib (NSC756644), sotorasib (NSC818433), MRTX-1133 (NSC836407), SN-38 (NSC673596), topotecan (NSC609699), epotoside (NSC141540), doxorubicin (NSC123127), gemcitabine (NSC613327), 5-fluorouracil (NSC19893), paclitaxel (NSC125973), vemurafenib (NSC761431), MSA-2 (NSC828583), SN-011 (NSC837082), adavosertib (NSC754352), prexasertib (NSC758257), carboplatin (NSC241240) and oxaliplatin (NSC266046), were obtained from the National Cancer Institute (NCI) Developmental Therapeutics Program Chemical Repository (21). The FDA-approved anticancer drug set is available from the Developmental Therapeutics Program at https://dtp.cancer.gov/organization/dscb/obtaining/. […] The stock solutions were prepared in dimethyl sulfoxide (DMSO, Sigma-Aldrich, St. Louis, MO, cat. D2650), except for the platinum compounds which were prepared in saline (Quality Biological, Gaithersburg, MD, cat. 114-055-101), at 800-fold the tested concentration and stored at -70 degrees C prior to their use. All drugs and investigational agents were tested over a range starting from a high concentration at or near the clinical Cmax and decreasing in half-log increments. If the clinical Cmax for an agent had not been determined, the highest concentration tested was 10 microM, except for SN-38, which was tested at a high concentration of 1 microM.
Cell Culture. All cells were maintained in an incubator at 37 degrees C and 5% CO2 with 95% humidity. The PDC lines were cultured according to standard operating procedures established by the NCI PDMR (https://pdmr.cancer.gov). Table 3 of the manuscript, lists the cell lines along with the number of the three cell types plated to form the mct-spheroids and media for tumor cell growth. After thawing, all PDC lines, except 997537-175-T-J1-PDC and 415267-285-R-J2-PDC, were cultured in Matrigel-coated flasks prepared with a working solution of 1X Ham's F-12 nutrient mix, without supplementation (Thermo Fisher Scientific, cat. 11765054), 100 U/mL penicillin-streptomycin (Thermo Fisher Scientific, cat. 15140122), and 2.5% Matrigel (Corning Inc., Corning, NY, cat. 354248) for the first three passages. The two PDC lines 997537-175-T-J1-PDC and 415267-285-R-J2-PDC were cultured on uncoated flasks. The 857933-349-R-J2-PDC line was cultured in 6C/Colon 1B media containing advanced DMEM/F-12 (Thermo Fisher Scientific, cat. 12634028), 10 mM HEPES (Thermo Fisher Scientific, cat. 15630080), 1X GlutaMAX supplement (Thermo Fisher Scientific, cat. 35050061), 0.1 mg/mL primocin (InvivoGen, San Diego, CA, cat. ant-pm-2), 10% defined fetal bovine serum, heat inactivated (HyClone Laboratories Inc., Logan, UT, cat. SH30070.03HI), 50% L-WRN conditioned media (ATCC, cat. CRL-3276), 1.25 mM N-Acetyl-L-cysteine (Sigma-Aldrich, cat. A9165), 10 mM nicotinamide (Sigma-Aldrich, cat. N0636), 1X B-27 supplement (Thermo Fisher Scientific, cat. 17504044), 1X N-2 supplement (Thermo Fisher Scientific, cat. […]

[1] = second compound 0.0316 µM, first compound 0.0316 µM
[2] = second compound 0.0316 µM, first compound 0.1 µM
[3] = second compound 0.1 µM, first compound 0.0316 µM
[4] = second compound 0.1 µM, first compound 0.1 µM
[5] = second compound 0.316 µM, first compound 0.0316 µM
[6] = second compound 0.316 µM, first compound 0.1 µM
[7] = second compound 1 µM, first compound 0.0316 µM
[8] = second compound 1 µM, first compound 0.1 µM
[9] = second compound 3.16 µM, first compound 0.0316 µM
[10] = second compound 3.16 µM, first compound 0.1 µM
[11] = second compound 10 µM, first compound 0.0316 µM
[12] = second compound 10 µM, first compound 0.1 µM
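Further: spheroids exposed to drugs for 7 days.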
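Wherever viability, T/C is given: 100% = DMSO vehicle treated spheroids.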

SMILES: CC1COCCN1c1cc(C2(S(C)(=N)=O)CC2)nc(-c2ccnc3[nH]ccc23)n1 (centres undefined) + Cc1cccc(N(C)C(=O)C2C(O)CCN2c2nc(C)cc(C(F)(F)F)c2C#N)c1
- pIC50 (second compound 0.0316 µM): < 5.00
- pIC50 (second compound 0.1 µM): 5.37
- pIC50 (second compound 0.316 µM): 5.38
- pIC50 (second compound 1 µM): 5.73
- pIC50 (second compound 3.16 µM): < 5.00
- pIC50 (second compound 10 µM): 5.20
- viability, T/C [1]: 103%
- viability, T/C [2]: 111%
- viability, T/C (second compound 0.0316 µM, first compound 0.316 µM): 112%
- viability, T/C (second compound 0.0316 µM, first compound 1 µM): 61.2%
- viability, T/C (second compound 0.0316 µM, first compound 3.16 µM): 59.8%
- viability, T/C (second compound 0.0316 µM, first compound 10 µM): 46.8%
- viability, T/C [3]: 71.6%
- viability, T/C [4]: 113%
- viability, T/C (second compound 0.1 µM, first compound 0.316 µM): 109%
- viability, T/C (second compound 0.1 µM, first compound 1 µM): 82.2%
- viability, T/C (second compound 0.1 µM, first compound 3.16 µM): 58.8%
- viability, T/C (second compound 0.1 µM, first compound 10 µM): 28.4%
- viability, T/C [5]: 110%
- viability, T/C [6]: 117%
- viability, T/C (second compound 0.316 µM, first compound 0.316 µM): 104%
- viability, T/C (second compound 0.316 µM, first compound 1 µM): 78.8%
- viability, T/C (second compound 0.316 µM, first compound 3.16 µM): 48.8%
- viability, T/C (second compound 0.316 µM, first compound 10 µM): 48.4%
- viability, T/C [7]: 101%
- viability, T/C [8]: 92%
- viability, T/C (second compound 1 µM, first compound 0.316 µM): 76.2%
- viability, T/C (second compound 1 µM, first compound 1 µM): 64.6%
- viability, T/C (second compound 1 µM, first compound 3.16 µM): 36.8%
- viability, T/C (second compound 1 µM, first compound 10 µM): 33.7%
- viability, T/C [9]: 94.5%
- viability, T/C [10]: 110%
- viability, T/C (second compound 3.16 µM, first compound 0.316 µM): 97.5%
- viability, T/C (second compound 3.16 µM, first compound 1 µM): 53.5%
- viability, T/C (second compound 3.16 µM, first compound 3.16 µM): 53.2%
- viability, T/C (second compound 3.16 µM, first compound 10 µM): 52.8%
- viability, T/C [11]: 96.5%
- viability, T/C [12]: 103%
- viability, T/C (second compound 10 µM, first compound 0.316 µM): 92.2%
- viability, T/C (second compound 10 µM, first compound 1 µM): 75.1%
- viability, T/C (second compound 10 µM, first compound 3.16 µM): 64.3%
- viability, T/C (second compound 10 µM, first compound 10 µM): 41.3%

SMILES: Cn1ncnc1[C@H]1c2n[nH]c(=O)c3cc(F)cc(c23)N[C@@H]1c1ccc(F)cc1 + Cc1cccc(N(C)C(=O)C2C(O)CCN2c2nc(C)cc(C(F)(F)F)c2C#N)c1
- pIC50 (second compound 0.0316 µM): < 7.00
- pIC50 (second compound 0.1 µM): < 7.00
- pIC50 (second compound 0.316 µM): < 7.00
- pIC50 (second compound 1 µM): < 7.00
- pIC50 (second compound 3.16 µM): < 7.00
- pIC50 (second compound 10 µM): < 7.00
- viability, T/C (second compound 0.0316 µM, first compound 0.000316 µM): 105%
- viability, T/C (second compound 0.0316 µM, first compound 0.001 µM): 85.7%
- viability, T/C (second compound 0.0316 µM, first compound 0.00316 µM): 86.8%
- viability, T/C (second compound 0.0316 µM, first compound 0.01 µM): 77.2%
- viability, T/C [1]: 87.7%
- viability, T/C [2]: 75.1%
- viability, T/C (second compound 0.1 µM, first compound 0.000316 µM): 81.5%
- viability, T/C (second compound 0.1 µM, first compound 0.001 µM): 107%
- viability, T/C (second compound 0.1 µM, first compound 0.00316 µM): 78.3%
- viability, T/C (second compound 0.1 µM, first compound 0.01 µM): 87.8%
- viability, T/C [3]: 88.3%
- viability, T/C [4]: 64.2%
- viability, T/C (second compound 0.316 µM, first compound 0.000316 µM): 115%
- viability, T/C (second compound 0.316 µM, first compound 0.001 µM): 118%
- viability, T/C (second compound 0.316 µM, first compound 0.00316 µM): 77.8%
- viability, T/C (second compound 0.316 µM, first compound 0.01 µM): 99.2%
- viability, T/C [5]: 74.8%
- viability, T/C [6]: 56%
- viability, T/C (second compound 1 µM, first compound 0.000316 µM): 134%
- viability, T/C (second compound 1 µM, first compound 0.001 µM): 91%
- viability, T/C (second compound 1 µM, first compound 0.00316 µM): 95.9%
- viability, T/C (second compound 1 µM, first compound 0.01 µM): 80.2%
- viability, T/C [7]: 76.9%
- viability, T/C [8]: 66.9%
- viability, T/C (second compound 3.16 µM, first compound 0.000316 µM): 111%
- viability, T/C (second compound 3.16 µM, first compound 0.001 µM): 111%
- viability, T/C (second compound 3.16 µM, first compound 0.00316 µM): 98%
- viability, T/C (second compound 3.16 µM, first compound 0.01 µM): 76%
- viability, T/C [9]: 87.3%
- viability, T/C [10]: 78.7%
- viability, T/C (second compound 10 µM, first compound 0.000316 µM): 109%
- viability, T/C (second compound 10 µM, first compound 0.001 µM): 65%
- viability, T/C (second compound 10 µM, first compound 0.00316 µM): 95.7%
- viability, T/C (second compound 10 µM, first compound 0.01 µM): 106%
- viability, T/C [11]: 74.8%
- viability, T/C [12]: 69.3%

Reference: PubChem BioAssay AID1963827 (Molecular Pharmacology Branch, DTP, NCI, 2024)
